“And” between values parts separate entries of the source, which are not always exact repeats. Identical values can stand only once.

Experiment [1] relates to T. gondii ME49 bradyzoites. In words: Real-time PCR on ileum cDNA of infected Z-DNA binding protein knock out mice. It is filed as in vivo, Toxoplasma gondii. The settings on record: homogenized mouse ileum cDNA. The procedure:
(§1) Delta-6-desaturase inhibition. SC 26196 (Cayman) was solubilized in DMSO and used at 20 μM in mouse organoid monolayers. For in vivo treatment, the inhibitor was solubilized in 0.5% m/v methylcellulose and the mice were given 50 mg/kg every 12 hours by oral gavage (He et al., 2012). 4-week old C57BL/6J female mice deleted in Z-DNA-binding protein (Pittman et al., 2016) were divided into four different groups: uninfected control, T. gondii-infected without fatty acid supplementation, T. gondii infected with linoleic acid supplementation, and T. gondii-infected with linoleic acid and SC 26196 inhibitor. Each mouse supplemented with linoleic acid received 10 μL of 99% linoleic acid oil (MilliporaSigma Cat #843483) suspended in 0.5% Methylcellulose per day by oral gavage. Mice were infected with 1000 brain cysts purified as described above by oral gavage and euthanized 7 days post infection. Sample size was at least 2 mice per group and the experiment was repeated 5 times. Alternatively, each mouse was infected with one mouse brain at least 2 months postinfection with at least 1000 cysts. Mice were treated with SC 26196 until day 5 postinfection. Feces were collected from days 5-14 and oocysts enumerated by microscopy.
Real-time PCR on ileum cDNA. Z-DNA binding protein deletion mice ice with and without delta-6-desaturase inhibitor treatment were euthanized 7 days post infection. The ileum of each mouse was removed and homogenized in 1 mL of TRIzol. Total RNA was isolated according to manufacturer's protocol (Invitrogen) and treated with amplification grade Dnase I. cDNA was generated using the Invitrogen SuperScript III First-Strand Synthesis kit with random hexamer primers. GRA11B and SAG1 were used as markers of sexual and asexual stages, respectively. The T. gondii housekeeping gene TUB1A was used to normalize target gene expression. Real-time quantitative PCR was performed using Bio-Rad iTaq Universal SYBR Green Supermix on 311 an Applied Biosystems StepOnePlus Real-Time PCR system. The efficiency of each primer set was calculated from the slope of a 1:10 dilution standard curve of tachyzoite gDNA, where E=10^(−1/slope). The Pfaffl method (Pfaffl, 2001), which accounts for differences in efficiencies, was then used to calculate the relative gene expression of GRA11B and SAG1 per sample, in triplicate. Only wells with one melt curve temperature were used, indicating a single product. Primer sequences were as follows:
Statistical methods. All real-time PCR fecal samples were run in triplicate technical replicates. The difference between the mean target gene copy numbers was analyzed by two-tailed unpaired t tests. The real-time PCR intestinal samples were run in triplicate from two biological replicates per group. The difference between the mean relative expression of each target gene was analyzed by two-tailed unpaired t tests.
In general terms: Quantitative PCR measures a nucleic acid by following its amplification.

The test system of a further experiment is T. gondii. Nature of the experiment: Real-time PCR (SAG1) on gDNA of mouse fecal samples. To be noted: gDNA of mouse fecal samples. It is filed as in vivo, Toxoplasma gondii. The procedure: as §1
Real-time PCR on fecal samples. […] A standard curve was generated using a dilution series of 101-105 parasites per well amplified using the SAG1 primer set described above, based on a gDNA sample with known parasite quantity. […]
[formula] […] The calculated copy numbers of each sample were normalized based on the ng of nucleic acid used as PCR template. […]
Statistical methods. […] The difference between the mean target gene copy numbers was analyzed by two-tailed unpaired t tests. […] The difference between the mean relative expression of each target gene was analyzed by two-tailed unpaired t tests.

The mark [2] stands for this setting: 7 days post infection, Mouse 1 and Mouse 2, wells 1-3.

`CCCCC/C=C\C/C=C\CCCCCCCC(=O)O` [linoleic acid]: the “GRA11B raw Ct values” in experiment [1] (setting [2]) was 33.43 and 36.02 and 35.59 and 38.24 and 39.05. Also, the “SAG1 raw Ct values” in experiment [1] (setting [2]) was 32.63 and 31.52 and 32.31 and 31.46 and 32.97 and 31.72; in the experiment on T. gondii (wells 1-3), 37.02 and 36.43 and 34.08. Also, the “GRA11B Ct mean” value in experiment [1] (Mouse 1 and Mouse 2) was 37.13 and 36.02. Also, the “SAG1 Ct mean” value in experiment [1] (Mouse 1 and Mouse 2) was 32.63 and 31.57; in the experiment on T. gondii, 35.84.

Source of the values: US12171821B2, “Toxoplasma gondii vaccine” (priority 2018, dated 2024).
